Data published in US20250188194A1, “Method of treatment” (Nucleus Therapeutics Pty Ltd, priority 2021, published 2025).
“Also recorded” adds a separate entry of the source.

System: differentiated PLB-985 cells
Assay: Quantifying DNA released (adherent NET-DNA) after PMA stimulation by spectrophotometry
Type: cell-based, human
Conditions: 1, 10 or 50 μM GSK484 one hour prior to PMA; N=2
Procedure: The results of the DAPI and SYTOX™ Green staining studies in FIG. 2C, 2D are consistent with DX1-mediated inhibition of chromatin decondensation and DNA release by differentiated PLB-985 cells. To further probe this effect, DNA-protein release was measured by differentiated PLB-985 cells after PMA stimulation by resuspending and quantifying DNA-protein complexes adherent to wells by spectrophotometry using a previously described protocol for isolation and quantification of NET-DNA in cell culture. This assay is based on the concept that intact cells for the most part remain in suspension, while DNA-protein complexes released in NETs are at least partially adhered to wells. This distinction allows for separation of intact cells from adherent NET-DNA by aspiration of the cell culture supernatants, followed by resuspension of adherent DNA-protein complexes and quantification by spectrophotometry.
Next, the ability of this assay to detect the effect of a known NETosis inhibitor on DNA release by differentiated PLB-985 cells stimulated by PMA was verified. […] Differentiated PLB-985 cells were treated with 0-50 μM of GSK484 for one hour prior to stimulation with PMA, followed by quantification of adherent DNA by spectrophotometry. […]

COc1cc(C(=O)N2CC[C@@H](O)[C@@H](N)C2)cc2nc(-c3cc4ccccc4n3CC3CC3)n(C)c12 [GSK484]
DNA release in response to PMA (adherent DNA by spectrophotometry): reduced extracellular DNA in a dose-dependent manner; also recorded: dose-dependent inhibition of DNA release
